Literature values in US20210386729A1, “METHODS FOR TREATING LIVER DISORDERS USING FXR AGONISTS” (NOVARTIS AG, priority 2016, published 2021).

Conditions: clinical studies, PBC or NASH subjects; cited from earlier work

Q: Which pruritus does the source give for `CC[C@H]1[C@@H](O)[C@@H]2[C@H](CC[C@]3(C)[C@@H]([C@H](C)CCC(=O)O)CC[C@@H]23)[C@@]2(C)CC[C@@H](O)C[C@@H]12` [OCA, 6α-ethyl-chenodeoxycholic acid] here?
A: The pruritus was “may be associated with increased pruritus”.
